The values below are quoted from earlier work in US20240115654A1, “INTRAVENOUS ADMINISTRATION OF ENGINEERED ANTIMICROBIAL AMPHIPHILIC PEPTIDES” (priority 2021, published 2024).

The data set relates to Escherichia coli ATCC 25922 (QC). Conditions: E. coli ATCC 25922; established CLSI QC range; cited from earlier work.

Regarding Colistin [reference compound], the “MIC QC range (in parentheses under the MIC)” value is given as “(0.25-2) μg/mL”.
